Measurements reported in PubChem BioAssay (NCI).
Where “and” joins values, the source holds several entries; their conditions need not be identical. Equal entries are not always repeated.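 Cultured in 96-well plates, cells were exposed to test compound for 48 hours across five concentrations. At the GI50, growth is halved. TGI: concentration producing complete growth inhibition.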

Legend:
Assay in all cases: inhibition of tumour cell growth, NCI panel, 48 h
[1] = tested on: HL-60(TB) leukemia
[2] = tested on: SK-MEL-5 melanoma
[3] = tested on: SN12C renal
[4] = tested on: HCT-116 colon
[5] = tested on: OVCAR-8 ovarian
[6] = tested on: SW-620 colon
[7] = tested on: MALME-3M melanoma
[8] = tested on: HCT-15 colon
[9] = tested on: NCI-H226 lung
[10] = tested on: NCI-H522 lung
[11] = tested on: OVCAR-4 ovarian
[12] = tested on: T-47D breast

SMILES | TGI [1] [µM] | TGI [2] | TGI [3] | TGI [4] [µM] | TGI [5] [µM] | TGI [6] [µM] | TGI [7] [µM] | TGI [8] | TGI [9] | TGI [10] [µM] | TGI [11] [µM] | TGI [12] | GI50 [2] [µM] | GI50 [9] [µM] | GI50 [12] [µM]
COC(=O)[C@H](Cc1ccccc1)NC(=O)c1ccc(CNC(=O)/C=C/c2csc(-c3ccccc3)n2)cc1 | > 100 | 14.7 µM | 46.2 µM | > 51.7 | > 65.4 | > 100 | 11.8 | > 60.4 µM | > 100 µM | 13.7 | > 71 | 7.12 µM | – | – | –
CCN(/C=C1/C(=O)C(c2ccccc2)N(c2ccccc2)C1=O)CC (configuration not stated) | > 10 | > 10 µM | > 10 µM | > 10 | > 10 | > 10 | > 10 | > 10 µM | > 10 µM | > 10 | > 10 | > 10 µM | – | – | –
COc1ccc(/C(Nc2ccccc2)=C(\CCl)c2ccccc2)cc1OC | 50 | 72.2 µM | > 100 µM | 48.9 | > 100 | > 100 | > 100 | > 100 µM | > 100 µM | > 100 | > 100 | > 100 µM | – | – | –
C[C@@H](CC(=O)OCc1ccccc1)OC1OC(COC(=O)C(C)(C)C)C(OC(=O)C(C)(C)C)C(OC(=O)C(C)(C)C)C1OC(=O)C(C)(C)C (some centres not stated) | > 100 | > 100 µM | > 100 µM | > 100 | > 100 | > 100 | > 100 | > 100 µM | > 100 µM | > 100 | > 100 | > 100 µM | – | – | –
COC(=O)C1CCC(=O)N1CN(C(C)=O)c1cccc(O)c1 (configuration not stated) | > 100 | > 100 µM | > 100 µM | > 100 | > 100 | > 100 | > 100 | > 100 µM | > 100 µM | > 100 | > 100 | > 100 µM | – | – | –
O=[N+]([O-])c1cccc2nc3ccccc3c(NCCCCCNc3c4ccccc4nc4cccc([N+](=O)[O-])c34)c12 | 0.0429 | 0.255 µM and 0.149 µM | 0.0777 µM and 0.0827 µM | 0.0346 | 0.348 | 1.62 | 0.16 | 0.0573 µM and 0.119 µM | 0.562 µM and 1.94 µM | 0.388 | 0.738 | 0.837 µM and 2.24 µM | 0.018 | 0.0249 | 0.121
Clc1ccc(C=Nc2ccc(Oc3ccc(Cl)cc3)c(Cl)c2)cc1 | 63.8 | 49.5 µM | 36.6 µM | 36.2 | > 100 | > 100 | 49.2 | 44.2 µM | > 100 µM | 32.3 | 76.1 | 89.8 µM | – | – | –
C=C1CC[C@@H](CCC2CCC3(OC2)O[C@]2(O)CC[C@@]3(C)OC2(C)C)C(C)(C)[C@H]1C/C=C1\CCOC1=O (some centres not stated) | 17 | 4.93 µM | 51.1 µM | 22.5 | > 100 | > 100 | 55.2 | > 81.4 µM | 35.2 µM | > 58.9 | > 100 | 90.3 µM | – | – | –
N#Cc1c(NC(=O)C(F)(F)F)sc2c3c(=O)c4ccccc4c(=O)c=3oc3ccccc3c12 | 24.6 | 26.6 µM | 55.3 µM | 29.1 | > 56 | 67.1 | 13.1 | 49.7 µM | 21.2 µM | 32.6 | 31.2 | 59.3 µM | – | – | –
COc1ccc(CCCCNCc2cccc(CNCCCCc3ccc(OC)cc3)c2)cc1 | 3.98 | 3.25 µM | 3.64 µM | 3.88 | 3.23 | 3.28 | 3.6 | 3.55 µM | 2.33 µM | 3.5 | 3.98 | 4.35 µM | – | – | –
Cc1ccc(OCC2OC(n3cnc4c(Cl)nc(Nc5cc(Cl)cc(Cl)c5)nc43)CC2Oc2ccc(C)cc2)cc1 (configuration not stated) | > 100 | > 100 µM | > 100 µM | > 100 | > 100 | > 100 | > 100 | > 100 µM | > 100 µM | > 100 | 59.2 | > 100 µM | – | – | –
[B]C(=O)NC(CC(C)C)C(=O)NCC(=O)NC1c2ccsc2C(=O)C1O (configuration not stated) (tested in a mixture with another compound) | > 100 | > 100 µM | > 100 µM | > 100 | > 100 | > 100 | > 100 | > 100 µM | > 100 µM | > 100 | > 100 | > 100 µM | – | – | –
